Data reported in paper PMC4521925, “17β-Hydroxysteroid Dehydrogenase Type 2 Inhibition: Discovery of Selective and Metabolically Stable Compounds Inhibiting Both the Human Enzyme and Its Murine Ortholog” (PLoS ONE, 2015).

Assays:
[1] = molecular target: T1, h17β-HSD1 (Homo sapiens, UniProt P14061); assay: Inhibition of h17β-HSD1 in cell-free assay; format: biochemical; settings: human placental cytosolic fraction, substrate E1 [500 nM], cofactor NADH [500 μM]
T1 construct: h17β-HSD1 was obtained after precipitation with ammonium sulfate from the cytosolic fraction; from tissue; host or cells: human placenta, cytosolic fraction
T1 sequence (P14061 1-328): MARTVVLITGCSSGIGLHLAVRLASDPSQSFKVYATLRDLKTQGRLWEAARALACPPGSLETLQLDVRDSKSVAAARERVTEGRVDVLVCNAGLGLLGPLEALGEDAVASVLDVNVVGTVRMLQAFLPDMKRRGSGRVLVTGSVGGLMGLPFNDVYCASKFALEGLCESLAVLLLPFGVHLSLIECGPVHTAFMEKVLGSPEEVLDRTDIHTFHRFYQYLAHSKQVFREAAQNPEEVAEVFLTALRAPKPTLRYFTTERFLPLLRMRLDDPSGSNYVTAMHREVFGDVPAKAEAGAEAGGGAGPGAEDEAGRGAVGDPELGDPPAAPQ
Method in brief: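 Cytosolic enzyme from human placenta, ammonium sulfate-precipitated, incubated with 500 μM NADH, test compound and unlabelled plus [3H]-E1 (500 nM final) for 10 min at 37°C. Steroids separated by HPLC with radiodetection to quantify conversion.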

[2] = molecular target: T2, ERα (Homo sapiens, UniProt P03372); assay: Estrogen receptor affinity in a cell-free assay (ERα); format: binding; settings: 1000-fold excess relative to E2; recombinant human ERα
T2 sequence (P03372 1-595): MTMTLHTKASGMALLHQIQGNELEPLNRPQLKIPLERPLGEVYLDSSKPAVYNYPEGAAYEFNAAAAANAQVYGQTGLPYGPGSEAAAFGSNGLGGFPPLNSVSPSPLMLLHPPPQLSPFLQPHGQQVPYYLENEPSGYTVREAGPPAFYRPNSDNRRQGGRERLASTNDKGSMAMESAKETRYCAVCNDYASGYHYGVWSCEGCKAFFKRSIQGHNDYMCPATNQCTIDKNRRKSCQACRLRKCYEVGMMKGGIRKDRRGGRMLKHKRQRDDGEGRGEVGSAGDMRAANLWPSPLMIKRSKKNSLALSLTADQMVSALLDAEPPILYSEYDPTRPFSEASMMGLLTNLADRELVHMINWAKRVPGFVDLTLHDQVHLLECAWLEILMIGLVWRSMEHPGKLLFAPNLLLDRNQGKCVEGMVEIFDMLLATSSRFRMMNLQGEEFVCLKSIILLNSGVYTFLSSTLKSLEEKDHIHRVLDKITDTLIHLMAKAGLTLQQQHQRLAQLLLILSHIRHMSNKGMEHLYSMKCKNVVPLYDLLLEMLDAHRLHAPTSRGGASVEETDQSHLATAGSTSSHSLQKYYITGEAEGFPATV
Protocol: The binding affinity of selected compounds to ERα and ERβ was determined according to the recommendations of the US Environmental Protection Agency (EPA) by their Endocrine Disruptor Screening Program (EDSP)[24] using recombinant human proteins.
The potential inhibitors were dissolved in DMSO (5% final concentration). […] After incubation, ligand-receptor complexes were selectively bound to hydroxyapatite (83.5 g/LinTE-buffer). The bound complex was washed three times and resuspended in ethanol. For radiodetection, scintillator cocktail (Quickszint 212, Zinsser Analytic, Frankfurt) was added and samples were measured in a liquid scintillation counter (1450 LSC & Luminescence Counter, Perkin Elmer).
After the assay was established and validated, a modification was made to increase throughput.

[3] = molecular target: T3, m17β-HSD1 (Mus musculus, UniProt P51656); assay: Inhibition of m17β-HSD1 in cell-free assay; format: biochemical; settings: recombinant m17β-HSD1, substrate E1 [500 nM], NADPH [500 μM]
T3 construct: host or cells: HEK 293 cells, transient transfection, 1000 g supernatant of the lysate
T3 sequence (P51656 1-344): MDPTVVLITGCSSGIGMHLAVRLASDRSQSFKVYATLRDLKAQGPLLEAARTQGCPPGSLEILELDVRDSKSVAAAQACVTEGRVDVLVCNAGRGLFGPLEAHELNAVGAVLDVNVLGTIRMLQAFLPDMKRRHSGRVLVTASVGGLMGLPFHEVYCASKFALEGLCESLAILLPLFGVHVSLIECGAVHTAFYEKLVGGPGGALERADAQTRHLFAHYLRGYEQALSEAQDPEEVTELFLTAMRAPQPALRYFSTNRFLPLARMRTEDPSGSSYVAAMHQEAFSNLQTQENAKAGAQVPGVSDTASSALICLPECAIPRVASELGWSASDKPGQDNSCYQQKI
Protocol: h17β-HSD2, h17β-HSD1, m17β-HSD2 and m17β-HSD1 cell-free assays were performed similarly, by incubating enzyme, tritiated substrate, cofactor and inhibitor, according to described procedures.
Recombinant m17β-HSD1 enzyme was produced by transfection of HEK 293 cells with a m17β-HSD1 expression plasmid (coding sequence of NM_010475 in pCMV6Entry vector, OriGene Technologies, Inc.) according to a described procedure. 48 hours after transfection cells were homogenized by sonication (3 x 10 s) in a buffer containing saccharose (40 mMTris, 250 mM saccharose, 5 mM EDTA, 7 mM DTT, 1 mM PMSF, pH 7,5). Cell lysate was centrifuged (1000 g, 15 min, 4°C) and 20% glycerol was added to the supernatant before aliquots were frozen and stored at -70°C.
The 17β-HSD1 inhibition assay was performed similarly to the h17β-HSD2 test. The human cytosolic enzyme was incubated with NADH [500 μM] while the mouse recombinant enzyme was reacted with NADPH [500 μM].Test compound and a mixture of unlabelled- and [^3H]-E1 (final concentration: 500 nM, 0.15 μCi) were added and mixed for 10 min at 37°C. Further treatment of the samples and HPLC separation was carried out as mentioned above for h17β-HSD2.

Row | Structure (SMILES) | IC50 [1] [µM] | displacement of E2 from ERα [2] [%] | inhibition of m17β-HSD1 at 1 μM [3]
1 | COc1cccc(N(C)C(=O)c2ccc(-c3cccc(C)c3)cc2)c1 [Compound 6a, N-(3-methoxyphenyl)-N,3'-dimethyl-[1,1'-biphenyl]-4-carboxamide] | 6.4 | ≤ 20 | –
2 | Cc1cccc(-c2ccc(C(=O)N(C)Cc3cccc(O)c3)cc2)c1F [Compound 25, 2'-Fluoro-N-(3-hydroxybenzyl)-N,3'-dimethyl-[1,1'-biphenyl]-4-carboxamide] | 31 | ≤ 20 | None of the tested compounds showed any inhibition
3 | Cc1cccc(N(C)C(=O)c2ccc(-c3cccc(C)c3F)cc2)c1 [Compound 21a, 2'-Fluoro-N,3'-dimethyl-N-(m-tolyl)-[1,1'-biphenyl]-4-carboxamide] | 3.71 | ≤ 20 | None of the tested compounds showed any inhibition
4 | COc1cccc(N(C)C(=O)c2ccc(-c3ccc(C)c(C)c3)cc2)c1 [Compound 17a, N-(3-methoxyphenyl)-N,3',4'-trimethyl-[1,1'-biphenyl]-4-carboxamide] | 13.3 | ≤ 20 | None of the tested compounds showed any inhibition
